{
  "source": "patent US8946287B2",
  "about": "“Chemotherapeutic flavonoids, and syntheses thereof” (Purdue Research Foundation, priority 2006, dated 2015)",
  "key": {"[1]": {"tested_on": "TPA-induced ornithine decarboxylase (ODC) activity in T24 cells", "assay": "Inhibition of TPA-induced ornithine decarboxylase (ODC) activity in T24 cells", "assay_type": "cell-based", "details": "Homo sapiens, read-out: IC50, inhibition of TPA-induced ODC activity", "experimental": "Cell Culture. […] T24 cells were cultured in MEM medium (Invitrogen, Carlsbad, Calif.) containing 10% heat-inactivated fetal bovine serum, non-essential amino acids, 1 mM sodium pyruvate (BioWhittaker, Walkersville, Md.), 100 units of penicillin/mL, 100 μg streptomycin/mL and 250 ng amphotericin B/mL (Gibco Invitrogen, Grand Island, N.Y.). […] The cell lines were maintained in a 5% CO2 atmosphere at 37° C. and were routinely tested for mycoplasma contamination.\nIn brief, cells were plated at an initial density of 2×10^5 cells per well in 24-well plates. […] After an additional 6 h incubation, plates were washed twice with PBS and kept at −85° C. until tested. ODC activity was directly assayed by measuring the release of [^14C]CO2 from L-[1-^14C]-ornithine HCl in the presence of 190 μM nonradioactive ornithine HCl. The amount of radioactivity captured in NaOH-impregnated filter discs was determined by scintillation counting in 24-well plates using a Wallac 1450 Microbeta liquid scintillation counter. Protein was determined according to the Lowry procedure. Interfering dithiothreitol contained in the reaction mixture was destroyed by adding chloramine T (50 μL, 8 mg/mL) to each well (30 min incubation at RT), followed by NaOH (50 μM, 5.7 M) to solubilize the protein. The protein was measured in 96-well plates using an aliquot of the reaction mixture and bovine serum albumin as a standard. The optical density was measured at 660 nm using a BT2000 Microkinetic Reader. The results were calculated as nmol [^14C]CO2/h/mg protein and expressed as a percentage in comparison with a control treated with DMSO and TPA (12-O-tetradecanoylphorbol-13-acetate). Dose-response curves were prepared and the results were expressed as IC50 values in micromolar concentrations."}, "[2]": {"biological_target": "T1, aromatase (CYP19, BD Biosciences) (Homo sapiens, UniProt P11511)", "T1 sequence (P11511 1-503)": "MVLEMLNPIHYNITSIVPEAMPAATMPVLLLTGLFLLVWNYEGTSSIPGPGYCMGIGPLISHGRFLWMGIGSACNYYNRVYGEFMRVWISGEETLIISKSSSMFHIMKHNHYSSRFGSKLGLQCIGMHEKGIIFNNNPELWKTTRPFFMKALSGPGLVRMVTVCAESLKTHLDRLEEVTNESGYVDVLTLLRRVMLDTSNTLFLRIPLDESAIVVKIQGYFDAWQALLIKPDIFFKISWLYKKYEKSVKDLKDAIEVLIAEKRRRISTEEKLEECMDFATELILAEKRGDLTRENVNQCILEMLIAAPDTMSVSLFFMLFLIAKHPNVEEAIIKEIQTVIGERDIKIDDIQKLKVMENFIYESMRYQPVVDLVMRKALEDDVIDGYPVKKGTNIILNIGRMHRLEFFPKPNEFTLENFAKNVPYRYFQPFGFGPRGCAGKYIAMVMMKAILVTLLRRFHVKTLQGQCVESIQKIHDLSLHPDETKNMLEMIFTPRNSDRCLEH", "assay": "Assay for inhibition of aromatase activity (fluorescence, dibenzylfluorescein)", "experimental": "Aromatase inhibition is quantified by measuring the fluorescent intensity of fluorescein, the hydrolysis product of dibenzylfluorescein by aromatase. In brief, the test substance (10 μL) is pre-incubated with the NADPH regenerating system (90 μL of 2.6 mM NADP^+, 7.6 mM glucose 6-phosphate, 0.8 U/mL glucose-6-phosphate dehydrogenase, 13.9 mM MgCl2, and 1 mg/mL albumin in 10 mL of 50 mM potassium phosphate, pH 7.4) for 10 min at 37° C. before 100 μL of the enzyme and substrate mixture [800 μL enzyme (CYP19, BD Biosciences, San Jose, Calif.), 0.4 μM dibenzylfluorescein and 4 mg/mL albumin in 10 mL of 50 mM potassium phosphate, pH 7.4] are added. Then, the reaction mixture is incubated for 30 min at 37° C. to allow aromatase to generate the product, and quenched with 75 μL 2 N NaOH. After the reaction is terminated, a 5-min shaking followed by a 2-h incubation at 37° C. enhances the noise/background ratio and fluorescence is measured at 485 nm (excitation) and 530 nm (emission). All experiments were performed in duplicate and the average was used for calculation of IC50 values (Table 2). Compounds were tested in comparison to aminogluthethimide used as positive control."}, "HL-60 cells": {"tested_on": "HL-60 cells", "assay": "Induction of differentiation in HL-60 cell line (NBT reduction, 4-day protocol)", "assay_type": "cell-based", "experimental": "Cell Culture. […] The cell lines were maintained in a 5% CO2 atmosphere at 37° C. and were routinely tested for mycoplasma contamination.\nHL-60 cells were tested using a 4-day protocol. […] In brief, cells in log phase (approximately 10^6 cells/mL) were diluted to 10^5 cells/mL and preincubated overnight (18 h) in 24-well plates to allow cell growth recovery. Then, samples dissolved in DMSO were added, keeping the final DMSO concentration at 0.1% (v/v). Control cultures were treated with the same concentration of DMSO.\nEvaluation of NBT reduction was used to assess the ability of sample-treated cells to produce superoxide when challenged with TPA. A 1:1 (v/v) mixture of a cell suspension (10^6 cells) and TPA/NBT solution [2 mg/mL NBT and 1 μg/mL TPA in phosphate buffer saline (PBS)] was incubated for 1 h at 37° C. Then, cells were smeared on glass slides, and counterstained with 0.3% (w/v) safranin O in methanol. Positive cells reduce NBT yielding intracellular black-blue formazan deposits and were quantified by microscopic examination of >200 cells. Results were expressed as a percentage of positive cells."}, "[3]": {"tested_on": "TPA-induced NF-κB activity in HepG2 cells stably transfected with NF-κB-luciferase plasmid", "assay": "Inhibition of TPA-induced NF-κB activity in HepG2 cells (NF-κB-luciferase)", "assay_type": "cell-based, human", "experimental": "Cell Culture. […] HepG2 human hepatoma cells stably transfected with NF-κB-luciferase plasmid were maintained in Ham's F12 supplemented with 10% heat-inactivated fetal bovine serum, 100 units/mL penicillin G sodium, 100 μg/mL streptomycin sulfate, 1% MEM amino acid and 0.1% insulin. […] The cell lines were maintained in a 5% CO2 atmosphere at 37° C. and were routinely tested for mycoplasma contamination.\nInhibition of TPA-Induced NF-κB Activity in HepG2 Cells. […] In brief, transfected cells were incubated for 48 h in 96-well plates. […] Cells were washed with PBS, lysed using 50 μL 1× Reporter Lysis Buffer (Promega, Madison, Wis.) for 10 min, and the luciferase determination was performed according to the manufacturer's protocol."}, "[4]": {"details": "T-24, T24 cells, TPA 200 nM, 6 h incubation"}, "[5]": {"details": "read-out: IC50 (μM), aromatase inhibition, fluorescein from dibenzylfluorescein, 30 min at 37° C., average of duplicates"}},
  "note": "Like-named read-outs stand apart in the source and are kept apart here.",
  "data": [
    {"compound": "COc1ccc2c(c1)OC(c1ccc(OCC=C(C)C)cc1)CC2=O", "note": "(racemic) [8k, 7-Methoxy-2-(4-(3-methylbut-2-enyloxy)phenyl)chroman-4-one]", "values": [
      {"measurement": "melting point", "value": "108 to 110", "unit": "°C"}
    ]},
    {"compound": "CC1=CC(=O)c2ccccc2C1=O", "note": "[menadione]", "values": [
      {"measurement": "IC50", "setting": "[1]; [4]", "value": 8.3, "unit": "µM"}
    ]},
    {"compound": "COc1ccc2c(c1)OC(c1cccc(CC=C(C)C)c1)CC2=O", "note": "(racemic) [8i, 7-Methoxy-2-(3-(3-methylbut-2-enyl)phenyl)chroman-4-one]", "values": [
      {"measurement": "IC50", "setting": "[2]", "value": "4.67 ± 2.15", "unit": "µM"}
    ]},
    {"compound": "CC(C)=CCc1cc(/C=C/C(=O)c2ccc(O)cc2O)ccc1O", "note": "[7b, 1-(2,4-Dihydroxyphenyl)-3-(4-hydroxy-3-(3-methylbut-2-enyl)phenyl)-prop-2-en-1-one]", "values": [
      {"measurement": "melting point", "value": 167, "unit": "°C"},
      {"measurement": "IC50", "setting": "[2]", "value": "> 308", "unit": "µM"}
    ]},
    {"compound": "O=c1cc(-c2ccc(O)cc2)oc2cc(O)cc(O)c12", "note": "[apigenin]", "values": [
      {"measurement": "IC50", "setting": "[1]; [4]", "value": 6, "unit": "µM"},
      {"measurement": "ED50, concentration inducing 50% of the cells to differentiate", "setting": "HL-60 cells", "value": 10, "unit": "µM"}
    ]},
    {"compound": "COCOc1ccc(C2CC(=O)c3ccc(OC)cc3O2)cc1CC=C(C)C", "note": "(racemic) [8e, 7-Methoxy-2-(4-(methoxymethoxy)-3-(3-methylbut-2-enyl)phenyl)chroman-4-one]", "values": [
      {"measurement": "IC50", "setting": "[2]", "value": "25.1 ± 6.38", "unit": "µM"}
    ]},
    {"compound": "COc1ccc(/C=C/C(=O)c2ccc(O)cc2O)cc1CC=C(C)C", "note": "[7d, 1-(2,4-Dihydroxyphenyl)-3-(4-methoxy-3-(3-methylbut-2-enyl)phenyl)prop-2-en-1-one]", "values": [
      {"measurement": "melting point", "value": "166 to 168", "unit": "°C"},
      {"measurement": "IC50", "setting": "[2]; [5]", "value": "82.9 ± 44.3", "unit": "µM"}
    ]},
    {"compound": "COc1ccc(C(=O)/C=C/c2ccc(O)c(CC=C(C)C)c2)c(O)c1", "note": "[7f, 3-(4-Hydroxy-3-(3-methylbut-2-enyl)phenyl)-1-(2-hydroxy-4-methoxyphenyl)prop-2-en-1-one]", "values": [
      {"measurement": "melting point", "value": "80 to 82", "unit": "°C"},
      {"measurement": "IC50", "setting": "[2]", "value": "> 295", "unit": "µM"}
    ]},
    {"compound": "COc1ccc2c(c1)OC(c1ccc(O)c(CC=C(C)C)c1)CC2=O", "note": "(racemic) [8f, 2-(4-Hydroxy-3-(3-methylbut-2-enyl)phenyl)-7-methoxychroman-4-one]", "values": [
      {"measurement": "IC50", "setting": "[2]", "value": "4.75 ± 0.61", "unit": "µM"}
    ]},
    {"compound": "COc1ccc2c(c1)OC(c1ccc(OC)c(CC=C(C)C)c1)CC2=O", "note": "(racemic) [8g, 7-Methoxy-2-(4-methoxy-3-(3-methylbut-2-enyl)phenyl)chroman-4-one]", "values": [
      {"measurement": "IC50", "setting": "[2]", "value": "3.67 ± 1.61", "unit": "µM"}
    ]},
    {"compound": "COc1ccc(C2CC(=O)c3ccccc3O2)cc1CC=C(C)C", "note": "(racemic) [8h, 2-(4-Methoxy-3-(3-methylbut-2-enyl)phenyl)chroman-4-one]", "values": [
      {"measurement": "IC50", "setting": "[2]", "value": "12.1 ± 3.24", "unit": "µM"}
    ]},
    {"compound": "COc1ccc(/C=C/C(=O)c2ccccc2O)cc1CC=C(C)C", "note": "[7h, 1-(2-Hydroxyphenyl)-3-(4-methoxy-3-(3-methylbut-2-enyl)phenyl)prop-2-en-1-one]", "values": [
      {"measurement": "IC50", "setting": "[2]", "value": "> 310", "unit": "µM"}
    ]},
    {"compound": "COc1ccc(C2CC(=O)c3ccc(O)cc3O2)cc1CC=C(C)C", "note": "(racemic) [8d, 7-Hydroxy-2-(4-methoxy-3-(3-methylbut-2-enyl)phenyl)chroman-4-one]", "values": [
      {"measurement": "IC50", "setting": "[2]", "value": "4.08 ± 2.1", "unit": "µM"}
    ]},
    {"compound": "CC(C)=CCc1cc(C2CC(=O)c3ccc(O)cc3O2)ccc1O", "note": "(racemic) [8b, 7-Hydroxy-2-(4-hydroxy-3-(3-methylbut-2-enyl)phenyl)chroman-4-one]", "values": [
      {"measurement": "melting point", "value": "76 to 78", "unit": "°C"}
    ]},
    {"compound": "COCOc1ccc(C(=O)/C=C/c2ccc(OC)c(CC=C(C)C)c2)c(O)c1", "note": "[7c, 1-(2-Hydroxy-4-(methoxymethoxy)phenyl)-3-(4-methoxy-3-(3-methylbut-2-enyl)phenyl)prop-2-en-1-one]", "values": [
      {"measurement": "IC50", "setting": "[2]", "value": "> 261", "unit": "µM"}
    ]},
    {"compound": "COCOc1ccc(C(=O)/C=C/c2ccc(OCOC)c(CC=C(C)C)c2)c(O)c1", "note": "[7a, 1-(2-Hydroxy-4-(methoxymethoxy)phenyl)-3-(4-(methoxymethoxy)-3-(3-methylbut-2-enyl)phenyl)prop-2-en-1-one]", "values": [
      {"measurement": "IC50", "setting": "[2]", "value": "> 243", "unit": "µM"}
    ]},
    {"compound": "COc1ccc(C(=O)CC(O)c2ccc(OC)c(CC=C(C)C)c2)c(O)c1", "note": "(stereo not shown) [3-Hydroxy-1-(2-hydroxy-4-methoxyphenyl)-3-(4-methoxy-3-(3-methylbut-2-enyl)phenyl)propan-1-one]", "values": [
      {"measurement": "IC50", "setting": "[2]; [5]", "value": "54.7 ± 11.9", "unit": "µM"}
    ]},
    {"compound": "COc1ccc(C(=O)C=Cc2ccc(OCC=C(C)C)cc2)c(O)c1", "note": "[7k, 1-(2-Hydroxy-4-methoxyphenyl)-3-(4-(3-methylbut-2-enyloxy)phenyl)prop-2-en-1-one]", "values": [
      {"measurement": "melting point", "value": "95 to 97", "unit": "°C"},
      {"measurement": "IC50", "setting": "[2]", "value": "> 271", "unit": "µM"}
    ]},
    {"compound": "O=c1c(-c2ccc(O)cc2)coc2cc(O)cc(O)c12", "note": "[genistein]", "values": [
      {"measurement": "ED50, concentration inducing 50% of the cells to differentiate", "setting": "HL-60 cells", "value": 30, "unit": "µM"}
    ]},
    {"compound": "COc1ccc(C(=O)/C=C/c2ccc(OC)c(CC=C(C)C)c2)c(O)c1", "note": "[7g, 1-(2-Hydroxy-4-methoxyphenyl)-3-(4-methoxy-3-(3-methylbut-2-enyl)phenyl)prop-2-en-1-one]", "values": [
      {"measurement": "melting point", "value": "82 to 84", "unit": "°C"},
      {"measurement": "IC50", "setting": "[2]", "value": "> 284", "unit": "µM"}
    ]},
    {"compound": "COc1cc2c(cc1OC)[C@@H]1C(=O)c3ccc4c(c3O[C@@H]1CO2)C=CC(C)(C)O4", "note": "[deguelin]", "values": [
      {"measurement": "IC50", "setting": "[1]; T-24, 6 h", "value": 0.1, "unit": "µM"}
    ]},
    {"compound": "COc1ccc(C2CC(=O)c3ccc(OC)cc3O2)cc1", "note": "(racemic) [8j, 7-Methoxy-2-(4-methoxyphenyl)chroman-4-one]", "values": [
      {"measurement": "IC50", "setting": "[2]", "value": "1.86 ± 0.37", "unit": "µM"}
    ]},
    {"compound": "COc1ccc(C(=O)/C=C/c2cccc(CC=C(C)C)c2)c(O)c1", "note": "[7i, 1-(2-Hydroxy-4-methoxyphenyl)-3-(3-(3-methylbut-2-enyl)phenyl)prop-2-en-1-one]", "values": [
      {"measurement": "IC50", "setting": "[2]", "value": "> 310", "unit": "µM"}
    ]},
    {"compound": "COc1ccc(/C=C/C(=O)c2ccc(OC)cc2O)cc1", "note": "[7j, 1-(2-Hydroxy-4-methoxyphenyl)-3-(4-methoxyphenyl)prop-2-en-1-one]", "values": [
      {"measurement": "IC50", "setting": "[2]", "value": "> 352", "unit": "µM"}
    ]},
    {"compound": "Tumor necrosis factor (TNF)-α", "values": [
      {"measurement": "IC50, standard inhibitor in NF-κB luciferase assay", "setting": "[3]", "value": "0.015 to 0.025", "unit": "µg/mL"}
    ]},
    {"compound": "COCOc1ccc2c(c1)OC(c1ccc(OC)c(CC=C(C)C)c1)CC2=O", "note": "(racemic) [8c, 2-(4-Methoxy-3-(3-methylbut-2-enyl)phenyl)-7-(methoxymethoxy)chroman-4-one]", "values": [
      {"measurement": "IC50", "setting": "[2]", "value": "7.67 ± 3.27", "unit": "µM"}
    ]},
    {"compound": "COCOc1ccc2c(c1)OC(c1ccc(OCOC)c(CC=C(C)C)c1)CC2=O", "note": "(racemic) [8a, 7-(Methoxymethoxy)-2-(4-(methoxymethoxy)-3-(3-methylbut-2-enyl)phenyl)-chroman-4-one]", "values": [
      {"measurement": "IC50", "setting": "[2]", "value": "13.9 ± 6.09", "unit": "µM"}
    ]},
    {"compound": "COCOc1ccc(/C=C/C(=O)c2ccc(OC)cc2O)cc1CC=C(C)C", "note": "[7e, 1-(2-Hydroxy-4-methoxyphenyl)-3-(4-(methoxymethoxy)-3-(3-methylbut-2-enyl)phenyl)prop-2-en-1-one]", "values": [
      {"measurement": "IC50", "setting": "[2]", "value": "> 261", "unit": "µM"}
    ]}
  ]
}
